Assay results: patent US20250221971A1, “METHODS OF TREATMENT FOR CYSTIC FIBROSIS” (Vertex Pharmaceuticals Incorporated, priority 2022, published 2025)

Assays:
[1] = target: T1, CFTR in F508del/MF-HBE cells (Homo sapiens, UniProt P13569, DEL508-508); assay: Ussing chamber assay of CFTR-mediated short-circuit currents (potentiator identification); assay type: cell-based; conditions: with 10 μM Compound VII, 18-24 hours at 37° C., 20% human serum
T1 construct: human bronchial epithelial (HBE) cells derived from CF subjects heterozygous for F508del and a minimal function CFTR mutation; endogenous in cells; host or cells: primary human bronchial epithelial cells from CF subjects (F508del/MF-HBE)
Method: Ussing chamber experiments were performed using human bronchial epithelial (HBE) cells derived from CF subjects heterozygous for F508del and a minimal function CFTR mutation (F508del/MF-HBE) and cultured as previously described (Neuberger T., Burton B., Clark H., Van Goor F. Methods Mol Biol 2011:741:39-54). After four days the apical media was removed, and the cells were grown at an air liquid interface for >14 days prior to use.
To isolate the CFTR-mediated short-circuit (ISC) current, F508del/MF-HBE grown on Costar® Snapwell™ cell culture inserts were mounted in an Ussing chamber and the transepithelial ISC was measured under voltage-clamp recording conditions (Vhold=0 mV) at 37° C. The basolateral solution contained (in mM) 145 NaCl, 0.83 K2HPO4, 3.3 KH2PO4, 1.2 MgCl2, 1.2 CaCl2), 10 Glucose, 10 HEPES (pH adjusted to 7.4 with NaOH) and the apical solution contained (in mM) 145 NaGluconate, 1.2 MgCl2, 1.2 CaCl2), 10 glucose, 10 HEPES (pH adjusted to 7.4 with NaOH) and 30 μM amiloride to block the epithelial sodium channel. […] The CFTR-mediated ISC (μA/cm^2) for each condition was determined from the peak forskolin response to the steady-state current following inhibition.
The activity of the CFTR potentiator compounds on the CFTR-mediated ISC was determined in Ussing chamber studies as described above. […]

[2] = First-in-human clinical study of safety, tolerability and PK in healthy subjects; assay type: in vivo; conditions: all cohorts (Parts A, B, C), single doses 0.6-540 mg, multiple total daily doses 2-315 mg
Method: In a first-in-human (FIH) clinical study of Compound I, designed to evaluate the safety, tolerability, and pharmacokinetics (PK) of Compound I in healthy subjects, an assessment of drug-drug interactions (DDIs) between Compound I and itraconazole and midazolam was conducted.
This first-in-human (FIH) study of Compound I included three parts (Parts A, B, and C).
Approximately 154 healthy adult subjects were planned to be enrolled in planned cohorts. Approximately 76 subjects were planned to be enrolled in Part A, approximately 48 subjects in Part B, and approximately 30 subjects in Part C. There was no pre-specified ratio of males to females, but reasonable effort was made to enroll females of non-childbearing potential in all dosing cohorts.
Six dose escalation cohorts each were planned for Parts A and B. Additional cohorts in Part A were enrolled based on data from previous cohorts. In each cohort, approximately eight subjects were randomized 3:1 to receive Compound I or placebo as a suspension, under fasted or fed conditions. Eight subjects were enrolled in food-effect Cohort A9 to receive open-label Compound I; subsequent cohorts were dosed under fed conditions. […]
Food effect was evaluated in open-label, single-sequence Cohort A9 to evaluate the effect of food on the PK of Compound I based on emerging PK data during dose escalation. […]

T1 sequence (P13569 with tags, fused parts or gaps DEL508-508): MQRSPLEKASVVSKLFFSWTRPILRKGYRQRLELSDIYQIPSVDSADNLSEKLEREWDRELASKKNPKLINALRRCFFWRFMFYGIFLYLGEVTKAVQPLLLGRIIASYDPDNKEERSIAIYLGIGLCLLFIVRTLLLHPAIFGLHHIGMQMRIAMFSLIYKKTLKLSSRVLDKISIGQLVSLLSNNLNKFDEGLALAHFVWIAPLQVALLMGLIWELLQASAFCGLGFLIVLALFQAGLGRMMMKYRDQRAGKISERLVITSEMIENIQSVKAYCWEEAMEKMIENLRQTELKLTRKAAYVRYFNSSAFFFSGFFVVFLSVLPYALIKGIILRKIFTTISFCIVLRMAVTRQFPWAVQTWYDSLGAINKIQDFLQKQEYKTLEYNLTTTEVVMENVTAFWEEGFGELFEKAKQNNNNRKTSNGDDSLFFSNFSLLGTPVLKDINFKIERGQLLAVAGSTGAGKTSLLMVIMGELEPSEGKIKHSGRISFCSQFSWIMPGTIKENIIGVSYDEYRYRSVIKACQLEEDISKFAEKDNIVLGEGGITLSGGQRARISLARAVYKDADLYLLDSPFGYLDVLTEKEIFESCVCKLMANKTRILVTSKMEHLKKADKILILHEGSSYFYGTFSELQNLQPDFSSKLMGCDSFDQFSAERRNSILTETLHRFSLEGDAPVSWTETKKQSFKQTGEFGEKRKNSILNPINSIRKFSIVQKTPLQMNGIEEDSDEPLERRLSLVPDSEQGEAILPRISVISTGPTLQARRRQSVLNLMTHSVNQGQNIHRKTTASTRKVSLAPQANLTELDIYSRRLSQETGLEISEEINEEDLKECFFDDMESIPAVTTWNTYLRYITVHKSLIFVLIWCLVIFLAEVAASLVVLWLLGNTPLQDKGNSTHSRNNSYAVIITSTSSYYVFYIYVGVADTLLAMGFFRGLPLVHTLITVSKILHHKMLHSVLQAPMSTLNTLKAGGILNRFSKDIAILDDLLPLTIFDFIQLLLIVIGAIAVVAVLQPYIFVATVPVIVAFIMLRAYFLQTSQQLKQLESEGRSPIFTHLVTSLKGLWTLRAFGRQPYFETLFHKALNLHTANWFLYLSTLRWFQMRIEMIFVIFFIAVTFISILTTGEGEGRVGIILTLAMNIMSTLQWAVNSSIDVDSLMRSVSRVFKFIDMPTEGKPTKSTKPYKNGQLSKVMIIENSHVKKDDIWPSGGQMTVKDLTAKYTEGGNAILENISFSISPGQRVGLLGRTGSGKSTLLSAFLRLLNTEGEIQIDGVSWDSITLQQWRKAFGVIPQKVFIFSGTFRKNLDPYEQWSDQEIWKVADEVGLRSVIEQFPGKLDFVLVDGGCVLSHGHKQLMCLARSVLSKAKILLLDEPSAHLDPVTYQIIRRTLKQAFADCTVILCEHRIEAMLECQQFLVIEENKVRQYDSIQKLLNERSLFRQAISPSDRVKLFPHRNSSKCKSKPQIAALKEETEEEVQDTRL

EC50 [1]: < 500 nM
Compound: C[C@@H]1CCCCC[C@](O)(C(F)(F)F)C2=NN=C(O2)c2nc(c(C(F)(F)F)cc2N)O1 [Compound I, (6R,12R)-17-amino-12-methyl-6,15-bis(trifluoromethyl)-13,19-dioxa-3,4,18-triazatricyclo[12.3.1.12,5]nonadeca-1(18),2,4,14,16-pentaen-6-ol]
safety and tolerability [2]: generally safe and well-tolerated
